Laboratory results as given in PubChem BioAssay (NCI).
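Interpolation was linear, between the two tested concentrations surrounding the appropriate level; five concentrations were tested over 48 hours in 96-well plates. TGI: concentration producing complete growth inhibition.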

Legend:
Assay in all cases: NCI tumour cell line growth inhibition, 48 h
OVCAR-5 ovarian = tested on: OVCAR-5 ovarian
SNB-19 CNS = tested on: SNB-19 CNS
UO-31 renal = tested on: UO-31 renal
TK-10 renal = tested on: TK-10 renal
EKVX NSCLC = tested on: EKVX NSCLC
786-0 renal = tested on: 786-0 renal
OVCAR-3 ovarian = tested on: OVCAR-3 ovarian
HL-60(TB) leukemia = tested on: HL-60(TB) leukemia
SF-539 CNS = tested on: SF-539 CNS
RXF 393 renal = tested on: RXF 393 renal
LXFL 529 NSCLC = tested on: LXFL 529 NSCLC
UACC-62 melanoma = tested on: UACC-62 melanoma
SK-MEL-5 melanoma = tested on: SK-MEL-5 melanoma
SF-268 CNS = tested on: SF-268 CNS
SF-295 CNS = tested on: SF-295 CNS
LOX IMVI melanoma = tested on: LOX IMVI melanoma
K-562 leukemia = tested on: K-562 leukemia
DMS 114 small cell lung = tested on: DMS 114 small cell lung
A549 NSCLC = tested on: A549 NSCLC
HCC-2998 colon = tested on: HCC-2998 colon
A498 renal = tested on: A498 renal
OVCAR-8 ovarian = tested on: OVCAR-8 ovarian
MOLT-4 leukemia = tested on: MOLT-4 leukemia
SK-MEL-2 melanoma = tested on: SK-MEL-2 melanoma
NCI-H460 lung = tested on: NCI-H460 lung
SW-620 colon = tested on: SW-620 colon
SNB-78 CNS = tested on: SNB-78 CNS
M19-MEL melanoma = tested on: M19-MEL melanoma
DLD-1 colon = tested on: DLD-1 colon
MALME-3M melanoma = tested on: MALME-3M melanoma
IGROV1 ovarian = tested on: IGROV1 ovarian
SN12C renal = tested on: SN12C renal
M14 melanoma = tested on: M14 melanoma
XF 498 CNS = tested on: XF 498 CNS
NCI-H522 lung = tested on: NCI-H522 lung
HCT-15 colon = tested on: HCT-15 colon
DMS 273 small cell lung = tested on: DMS 273 small cell lung
SR leukemia = tested on: SR leukemia
SK-MEL-28 melanoma = tested on: SK-MEL-28 melanoma
KM12 colon = tested on: KM12 colon
CCRF-CEM leukemia = tested on: CCRF-CEM leukemia
HCT-116 colon = tested on: HCT-116 colon
SK-OV-3 ovarian = tested on: SK-OV-3 ovarian
U251 CNS = tested on: U251 CNS
NCI-H23 lung = tested on: NCI-H23 lung
KM20L2 colon = tested on: KM20L2 colon
RPMI-8226 leukemia = tested on: RPMI-8226 leukemia
ACHN renal = tested on: ACHN renal
HOP-62 NSCLC = tested on: HOP-62 NSCLC
COLO 205 colon = tested on: COLO 205 colon
SNB-75 CNS = tested on: SNB-75 CNS
HOP-92 NSCLC = tested on: HOP-92 NSCLC
HT29 colon = tested on: HT29 colon
OVCAR-4 ovarian = tested on: OVCAR-4 ovarian
HOP-18 NSCLC = tested on: HOP-18 NSCLC
NCI-H226 lung = tested on: NCI-H226 lung
CAKI-1 renal = tested on: CAKI-1 renal

Measured: TGI

Cc1ccc(C2NC(=O)c3ccccc3N2)s1 (stereo unspecified)
58.4 µM: NCI-H460 lung
18.6 µM: NCI-H522 lung
52.8 µM: SN12C renal
54.2 µM: OVCAR-8 ovarian
39.3 µM: KM20L2 colon
39.7 µM: HCC-2998 colon
6.87 µM: SF-295 CNS
8.17 µM: HL-60(TB) leukemia
91.6 µM: SK-OV-3 ovarian
14.4 µM: SF-539 CNS
42 µM: SK-MEL-2 melanoma
58.2 µM: NCI-H23 lung
19 µM: XF 498 CNS
50.2 µM: OVCAR-3 ovarian
not listed: COLO 205 colon | SNB-75 CNS | HOP-92 NSCLC | HT29 colon | OVCAR-4 ovarian | HOP-18 NSCLC | NCI-H226 lung | CAKI-1 renal
> 100 µM: all other assays above

CC(=O)c1ccc2c(ccc(=O)n2C)c1
not listed: UO-31 renal | RXF 393 renal | SNB-78 CNS | SR leukemia | ACHN renal
> 100 µM: all other assays above
